20 molecules from US10758534B2 (Vertex Pharmaceuticals Incorporated, priority 2014, dated 2020) can be followed below.

This test concerns the target T1, F508del (Homo sapiens, UniProt P13569, DEL508-508).
T1 construct: expressed in transfected cells
Nature of the test: Protocol 1: membrane potential optical assay (FLIPR III, voltage sensing dye), identification of potentiator compounds. Format: cell-based. Conditions: Table 3, compounds of Table 1. Summed up:
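NIH3T3 F508del cells, 27° C × 24 hrs; compound/DMSO pretreat → redistribution dye load → single forskolin addition with Cl⁻ gradient (gluconate-substituted bath, HEPES pH 7.4). FLIPR III membrane-potential fluorescence read.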

T1 sequence (P13569 with tags, fused parts or gaps DEL508-508): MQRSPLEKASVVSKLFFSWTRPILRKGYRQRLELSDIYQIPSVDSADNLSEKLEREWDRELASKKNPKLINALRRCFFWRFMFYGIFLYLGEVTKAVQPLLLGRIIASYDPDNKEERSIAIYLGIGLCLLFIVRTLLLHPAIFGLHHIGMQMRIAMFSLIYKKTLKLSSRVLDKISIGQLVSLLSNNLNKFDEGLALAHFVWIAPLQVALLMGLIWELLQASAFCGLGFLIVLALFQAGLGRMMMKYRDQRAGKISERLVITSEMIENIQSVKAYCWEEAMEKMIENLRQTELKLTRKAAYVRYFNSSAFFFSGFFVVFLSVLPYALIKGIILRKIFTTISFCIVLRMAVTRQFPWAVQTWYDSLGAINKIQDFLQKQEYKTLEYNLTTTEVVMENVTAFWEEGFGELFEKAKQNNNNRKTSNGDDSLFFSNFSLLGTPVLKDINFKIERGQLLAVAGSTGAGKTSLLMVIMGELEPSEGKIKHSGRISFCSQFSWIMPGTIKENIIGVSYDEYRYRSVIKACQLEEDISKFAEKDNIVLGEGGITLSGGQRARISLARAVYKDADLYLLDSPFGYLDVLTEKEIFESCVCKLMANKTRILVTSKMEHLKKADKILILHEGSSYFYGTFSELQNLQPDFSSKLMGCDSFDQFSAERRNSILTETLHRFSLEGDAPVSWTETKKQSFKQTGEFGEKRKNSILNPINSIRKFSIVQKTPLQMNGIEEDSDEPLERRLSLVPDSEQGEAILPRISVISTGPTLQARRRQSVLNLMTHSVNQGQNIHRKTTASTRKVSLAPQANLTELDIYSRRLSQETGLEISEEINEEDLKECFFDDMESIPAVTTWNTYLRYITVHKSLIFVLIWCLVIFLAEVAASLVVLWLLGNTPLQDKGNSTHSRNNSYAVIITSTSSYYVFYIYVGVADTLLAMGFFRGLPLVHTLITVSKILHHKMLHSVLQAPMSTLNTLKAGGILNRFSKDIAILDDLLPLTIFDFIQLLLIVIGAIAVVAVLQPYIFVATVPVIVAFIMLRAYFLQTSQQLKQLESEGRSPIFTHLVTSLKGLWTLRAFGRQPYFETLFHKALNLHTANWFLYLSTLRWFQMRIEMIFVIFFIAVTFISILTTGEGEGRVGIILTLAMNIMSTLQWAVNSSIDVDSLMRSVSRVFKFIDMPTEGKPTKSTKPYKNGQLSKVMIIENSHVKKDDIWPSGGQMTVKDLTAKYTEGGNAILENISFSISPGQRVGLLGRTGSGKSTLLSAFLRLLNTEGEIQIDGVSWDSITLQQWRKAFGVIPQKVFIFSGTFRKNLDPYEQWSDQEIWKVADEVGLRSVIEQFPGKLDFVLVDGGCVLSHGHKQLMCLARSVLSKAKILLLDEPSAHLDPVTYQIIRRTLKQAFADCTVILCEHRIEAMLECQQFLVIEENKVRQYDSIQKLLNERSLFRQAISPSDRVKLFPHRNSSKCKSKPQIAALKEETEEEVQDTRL

`CC(C)COc1cc(F)cc(-c2ccc(C(=O)NS(=O)(=O)c3cccc(N)n3)c(N3CC(=O)CC3(C)C)n2)c1` [Compound 1073, N-[(6-amino-2-pyridyl)sulfonyl]-2-(2,2-dimethyl-4-oxo-pyrrolidin-1-yl)-6-(3-fluoro-5-isobutoxy-phenyl)pyridine-3-carboxamide]: the EC30 result is reported as “+ (“+” means greater than 10 uM)”.
The value for `CC(C)COc1cc(F)cc(-c2ccc(C(=O)NS(=O)(=O)c3cccc(N)n3)c(N3CCC[C@H]3C(C)(C)C)n2)c1` [Compound 1097, N-[(6-amino-2-pyridyl)sulfonyl]-2-[(2S)-2-tert-butylpyrrolidin-1-yl]-6-(3-fluoro-5-isobutoxy-phenyl)pyridine-3-carboxamide] was “+++ (“+++” means <3 uM)”.
The value for `CCOc1cccc2c1CN(Cc1c(C)cc(C)cc1C)[C@@]2(C)C(=O)NS(=O)(=O)c1cccc(N)n1` [Compound 1582, (1R)—N-[(6-amino-2-pyridyl)sulfonyl]-4-ethoxy-1-methyl-2-[(2,4,6-trimethylphenyl)methyl]isoindoline-1-carboxamide] was “+++ (“+++” means <3 uM)”; that for `CC(=O)NC1CCN(S(=O)(=O)NC(=O)c2ccc(-c3cc(F)cc(OCC(C)C)c3)nc2N2CC(C)CC2(C)C)C1` (centres unmarked) [Compound 1391, N-(3-acetamidopyrrolidin-1-yl)sulfonyl-6-(3-fluoro-5-isobutoxy-phenyl)-2-(2,2,4-trimethylpyrrolidin-1-yl)pyridine-3-carboxamide] was “+++ (“+++” means <3 uM)”.
The value for `Cc1cc(C)c(Oc2nc(C)ccc2C(=O)NS(=O)(=O)c2cccc(N(C)C)n2)c(C)c1` [Compound 1250, N-[[6-(dimethylamino)-2-pyridyl]sulfonyl]-6-methyl-2-(2,4,6-trimethylphenoxy)pyridine-3-carboxamide] was “+++ (“+++” means <3 uM)”; that for `CC(C)COc1cc(F)cc(-c2ccc(C(=O)NS(=O)(=O)c3ccc(O)cc3)c(N3C[C@@H](C)CC3(C)C)n2)c1` [Compound 1750, 6-(3-fluoro-5-isobutoxy-phenyl)-N-(4-hydroxyphenyl)sulfonyl-2-[(4S)-2,2,4-trimethylpyrrolidin-1-yl]pyridine-3-carboxamide] was “+++ (“+++” means <3 uM)”.
Regarding `CC(C)COc1cc(F)cc(-c2ccc(C(=O)NS(=O)(=O)c3ccc(O)c(N)n3)c(N3C[C@@H](C)CC3(C)C)n2)c1` [Compound 1563, N-[(6-amino-5-hydroxy-2-pyridyl)sulfonyl]-6-(3-fluoro-5-isobutoxy-phenyl)-2-[(4S)-2,2,4-trimethylpyrrolidin-1-yl]pyridine-3-carboxamide], the EC30 entry was “+++ (“+++” means <3 uM)”.
The value for `Cc1cc(C)c(Oc2nc(N(C)C)ccc2C(=O)NS(=O)(=O)c2cccc(N)n2)c(C)c1` [Compound 1306, N-[(6-amino-2-pyridyl)sulfonyl]-6-(dimethylamino)-2-(2,4,6-trimethylphenoxy)pyridine-3-carboxamide] was “+++ (“+++” means <3 uM)”; that for `CC(C)COc1cc(F)cc(-c2ccc(C(=O)NS(=O)(=O)c3cccc(N)n3)c(N(C)C(C)c3cccc(Cl)c3)n2)c1` (centres unmarked) [Compound 1205, N-[(6-amino-2-pyridyl)sulfonyl]-2-[1-(3-chlorophenyl)ethyl-methyl-amino]-6-(3-fluoro-5-isobutoxy-phenyl)pyridine-3-carboxamide] was “+++ (“+++” means <3 uM)”; that for `CC(C)(C)c1ccc(C(=O)NS(=O)(=O)c2cccc(N)n2)c(N2CCC(Cc3ccccc3)C2(C)C)n1` (centres unmarked) [Compound 1852, N-[(6-amino-2-pyridyl)sulfonyl]-2-(3-benzyl-2,2-dimethyl-pyrrolidin-1-yl)-6-tert-butyl-pyridine-3-carboxamide] was “+++ (“+++” means <3 uM)”.
The value for `CCOc1cccc2c1CN(Cc1ccc(OC(C)C)nc1)C2(C)C(=O)NS(=O)(=O)c1cccc(N)n1` (centres unmarked) [Compound 1662, N-[(6-amino-2-pyridyl)sulfonyl]-4-ethoxy-2-[(6-isopropoxy-3-pyridyl)methyl]-1-methyl-isoindoline-1-carboxamide] was “++ (“++” means between 3 uM and 10 uM)”; that for `COc1c(F)cc(-c2ccc(C(=O)NS(=O)(=O)c3ccc[nH]c3=O)c(N3C[C@@H](C)CC3(C)C)n2)cc1F` [Compound 1801, 6-(3,5-difluoro-4-methoxy-phenyl)-N-[(2-oxo-1H-pyridin-3-yl)sulfonyl]-2-[(4S)-2,2,4-trimethylpyrrolidin-1-yl]pyridine-3-carboxamide] was “+++ (“+++” means <3 uM)”; that for `CCOc1cccc2c1CN(Cc1c(C)cccc1C)C2(C)C(=O)NS(=O)(=O)c1cccc(N)n1` (centres unmarked) [Compound 1498, N-[(6-amino-2-pyridyl)sulfonyl]-2-[(2,6-dimethylphenyl)methyl]-4-ethoxy-1-methyl-isoindoline-1-carboxamide] was “+++ (“+++” means <3 uM)”.
The value for `CCOc1cccc2c1CN(Cc1c(C)cc(C)cc1C)C2(C)C(=O)NS(=O)(=O)c1ccc(O)cc1` (centres unmarked) [Compound 1453, 4-ethoxy-N-(4-hydroxyphenyl)sulfonyl-1-methyl-2-[(2,4,6-trimethylphenyl)methyl]isoindoline-1-carboxamide] was “+++ (“+++” means <3 uM)”.
`CC1CN(c2ncccc2C(=O)NS(=O)(=O)c2cccc(Nc3ccc(OC(F)(F)F)cc3)n2)C(C)(C)C1` (centres unmarked) [Compound 1977, N—[[6-[4-(trifluoromethoxy)anilino]-2-pyridyl]sulfonyl]-2-(2,2,4-trimethylpyrrolidin-1-yl)pyridine-3-carboxamide]: the EC30 entry is given as “+++ (“+++” means <3 uM)”.
The value for `CC(C)COc1cc(F)cc(-c2ccc(C(=O)NS(=O)(=O)c3cccc(N)n3)c(N(C)C3CC3)n2)c1` [Compound 1117, N-[(6-amino-2-pyridyl)sulfonyl]-2-[cyclopropyl(methyl)amino]-6-(3-fluoro-5-isobutoxy-phenyl)pyridine-3-carboxamide] was “+++ (“+++” means <3 uM)”; that for `CC(C)COc1cc(F)cc(-c2ccc(C(=O)NS(=O)(=O)c3cccnc3N)c(N3[C@H](C)CC[C@@H]3C)n2)c1` [Compound 1159, N-[(2-amino-3-pyridyl)sulfonyl]-2-[(2S,5R)-2,5-dimethylpyrrolidin-1-yl]-6-(3-fluoro-5-isobutoxy-phenyl)pyridine-3-carboxamide] was “+++ (“+++” means <3 uM)”.
The value for `CC1CN(c2nc(-c3ccccc3)ccc2C(=O)NS(=O)(=O)c2cccc(N)n2)C(C)(C)C1` (centres unmarked) [Compound 1334, N-[(6-amino-2-pyridyl)sulfonyl]-6-phenyl-2-(2,2,4-trimethylpyrrolidin-1-yl)pyridine-3-carboxamide] was “+++ (“+++” means <3 uM)”.
On to `CCOC(=O)/C=C/c1cc(C(=O)NS(=O)(=O)c2cccc(N)n2)c(N2C[C@@H](C)CC2(C)C)nc1C(C)(C)C` [Compound 1490, Ethyl (E)-3-[5-[(6-amino-2-pyridyl)sulfonylcarbamoyl]-2-tert-butyl-6-[(4S)-2,2,4-trimethylpyrrolidin-1-yl]-3-pyridyl]prop-2-enoate], for which the EC30 entry is “+++ (“+++” means <3 uM)”.
The value for `CC(C)COc1cc(F)cc(-c2ccc(C(=O)NS(=O)(=O)c3cccc(N)n3)c(N3CC(C(F)(F)F)CC3(C)C)n2)c1` (centres unmarked) [Compound 1788, N-[(6-amino-2-pyridyl)sulfonyl]-2-[2,2-dimethyl-4-(trifluoromethyl)pyrrolidin-1-yl]-6-(3-fluoro-5-isobutoxy-phenyl)pyridine-3-carboxamide] was “+++ (“+++” means <3 uM)”.
